# Experimental data published in patent publication US12215084B2, “2(1H)-pyridinones and their use to treat inflammatory conditions” (Conopco, Inc., priority 2019, dated 2025).
# Read-outs that look alike come from different tables or passages of the source.
# Key:
# [1] = Octopirox® degradation under cool white light; format: physicochemical; settings: cool white light (indoor light), 24 hours, room temperature, LCMS / UPLC-UV
# Procedure: Cool White Light Treatment:
# The cool white light (CWL) irradiation was carried out in an X-Rite (Macbeth) Spectra Light III chamber. CWL mode was chosen which provides stable irradiation mimicking the indoor light. The intensity of light was fixed which estimated at 6 μw/cm2 for UVA and 1.5 μw/cm^2 for UVB. The chamber temperature was equal to the room temperature ([…]). The sample was placed in a line close to the center of the chamber. After 24 hours, the sample was analyzed by LCMS (Water UPLC coupled with Quatro Micro MS)., by quantitatively measured using UPLC-UV analysis following DPS derivatization.
# The separation was performed by a UPLC BEH C18 column and the mobile phase was acetonitrile/water (60/40, 0.1% formic acid) in isocratic elution. Electrospray ionization in positive mode was applied for MS scan.
# [2] = background statement (well known; Clariant introduction), cited from earlier work
# [3] = test system: THP1-XBlue™ cells; experiment: Anti-inflammation efficacy in THP-1 in vitro assay (LPS co-treatment, IL-6 ELISA); format: cell-based; settings: co-treated with E. coli LPS, PMA-differentiated THP1-XBlue cells, 24 hours, supernatant ELISA, LPS alone 3253.4
# Procedure: The following procedure was used to test the anti-inflammation efficacy of the compound:
# THP1-XBlue™ (Cat No: thpx-sp, InvivoGen) cells were cultured as suspense in RPMI 1640 medium supplemented with 10% FBS, penicillin (10 U/mL)—streptomycin (10 μg/ML). Cells were differentiated in 24-well plates at the density of 5×10^5 cells/well with 100 nM PMA for 72 hours. Cells were then co-treated with pure E. coli ipopolysaccharides (LPS) and with the compound inside the invention. After 24 hours, the supernatants were collected and measured for interleukin (IL)-6 as pro-inflammatory bio-marker using enzyme-linked immunosorbent assay (ELISA).
SMILES,quantity of Octopirox® after cool white light irradiation [1],light stability [2],light stability ([2]; listed as piroctone olamine),Concentration of IL-6 ([3]; 5 μM of the compound) [pg/mL],Concentration of IL-6 ([3]; 10 μM of the compound) [pg/mL]
"Cc1cc(CC(C)CC(C)(C)C)n(O)c(=O)c1.NCCO (centres unmarked) [Octopirox®, piroctone olamine]",reduced,unstable under light,light instable,–,–
Cc1cc(O)nc(CC(C)CC(C)(C)C)c1 (centres unmarked) [the compound],–,–,–,3083.3,1405.3
